Patent publication EP0188887A1, “Tertiary amine compounds” (IMPERIAL CHEMICAL INDUSTRIES PLC, priority 1985, dated 1986)

Experiments:
Format in all cases: in vivo
[1] = tested on: PUCCINIA RECONDITA (WHEAT); experiment: Foliar fungal disease test on plants (foliar spray plus root drench), Puccinia recondita on wheat; settings: 100 ppm active ingredient sprayed on foliage, root drench approximately 40 ppm a.i./dry soil; applied one or two days before inoculation
Experimental: (§1) The compounds were tested against a variety of foliar fungal diseases of plants. The technique employed was as follows. The plants were grown in John Innes Potting Compost (No 1 or 2) in 4 cm diameter minipots. The test compounds were formulated either by bead milling with aqueous Dispersol T or as a solution in acetone or acetone/ethanol which was diluted to the required concentration immediately before use. For the foliage diseases, the formulations (100 ppm active ingredient) were sprayed on to the foliage and applied to the roots of the plants in the soil. The sprays were applied to maximum retention and the root drenches to a final concentration equivalent to approximately 40 ppm a.i./dry soil. Tween 20, to give a final concentration of 0.05%, was added when the sprays were applied to cereals. For most of the tests the compound was applied to the soil (roots) and to the foliage (by spraying) one or two days before the plant was inoculated with the disease. An exception was the test on Erysiphe graminis in which the plants were inoculated 24 hours before treatment. Foliar pathogens were applied by spray as spore suspensions onto the leaves of test plants. After inoculation, the plants were put into an appropriate environment to allow infection to proceed and then incubated until the disease was ready for assessment. The period between inoculation and assessment varied from four to fourteen days according to the disease and environment. The disease control was recorded by the following grading:- • 4 = no disease • 3 = trace - 5% of disease on untreated plants • 2 = 6-25% of disease on untreated plants • 1 = 26-59% of disease on untreated plants • 0 = 60-100% of disease on untreated plants

[2] = tested on: VENTURIA INAEQUALIS (APPLE); experiment: Foliar fungal disease test on plants (foliar spray plus root drench), Venturia inaequalis on apple; settings: 100 ppm active ingredient sprayed on foliage, root drench approximately 40 ppm a.i./dry soil; applied one or two days before inoculation
Experimental: as §1

[3] = tested on: ERYSIPHE GRAMINIS (BARLEY); experiment: Foliar fungal disease test on plants (foliar spray plus root drench), Erysiphe graminis on barley; settings: 100 ppm active ingredient sprayed on foliage, root drench approximately 40 ppm a.i./dry soil; plants inoculated 24 hours before treatment
Experimental: as §1

[4] = tested on: CERCOSPORA ARACHIDICOLA (PEANUT); experiment: Foliar fungal disease test on plants (foliar spray plus root drench), Cercospora arachidicola on peanut; settings: 100 ppm active ingredient sprayed on foliage, root drench approximately 40 ppm a.i./dry soil; applied one or two days before inoculation
Experimental: as §1

Row | SMILES | disease control grading, PUCCINIA RECONDITA (WHEAT) [1] | disease control grading, VENTURIA INAEQUALIS (APPLE) [2] | disease control grading, ERYSIPHE GRAMINIS (BARLEY) [3] | disease control grading, CERCOSPORA ARACHIDICOLA (PEANUT) [4]
1 | C[C@@H]1CN(C[C@@H]2C[C@@]2(C)c2ccc(C(C)(C)C)cc2)C[C@H](C)O1 (relative stereo) [Compound 15] | 3 (3 = trace - 5% of disease on untreated plants) | 3 (3 = trace - 5% of disease on untreated plants) | 4 (4 = no disease) | 
2 | CC(C)(C)c1ccc(C2CC2CC2CCNCC2)cc1 (stereo not drawn) [Compound 1, 4-[2-(p-t-butylphenyl)-cyclopropylmethyl]-piperidine] | 4 (4 = no disease) | 0 (0 = 60-100% of disease on untreated plants) | 4 (4 = no disease) | 1 (1 = 26-59% of disease on untreated plants)
3 | C[C@@H]1CN(C[C@@H]2C[C@H]2c2ccc(C(C)(C)C)cc2)C[C@H](C)O1 (relative stereo) [Compound 4, 4-[2-(p-t-butylphenyl)-trans-cyclopropylmethyl]-2,6-cis-dimethylmorpholine] | 3 (3 = trace - 5% of disease on untreated plants) | 3 (3 = trace - 5% of disease on untreated plants) | 4 (4 = no disease) | 0 (0 = 60-100% of disease on untreated plants)
4 | CC(C)(C)c1ccc(C2C(CN3CCOCC3)C2(C)C)cc1 (stereo not drawn) [Compound 8, 4-[2-(p-t-butylphenyl)-3,3-dimethylcyclopropylmethyl]-morpholine] | 0 (0 = 60-100% of disease on untreated plants) | 3 (3 = trace - 5% of disease on untreated plants) | 4 (4 = no disease) | 3 (3 = trace - 5% of disease on untreated plants)
